Like-named read-outs stand apart in the source and are kept apart here.
Key:
FGFR2 = biological target: T1, FGFR2 (Homo sapiens, UniProt P21802); experiment: FGFR wild type enzyme assay (HTRF KinEASE-TK); assay type: biochemical; conditions: ATP 2 uM
T1 construct: biochemical assays using purified intracellular domains of the respective isoforms; purchased Carna Bioscience 08-134
Method in brief: (§1)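 Purified intracellular kinase domains, enzyme pre-incubated 30 min with compound (11-point 1:3 dilutions, typically 10,000-0.17 nM), then ATP plus 0.5 uM TK-peptide, 60 min at room temperature in HEPES pH7.5 with Mg2+/Mn2+. HTRF 665/615 ratio converted to percent of control; IC50 from four-parameter logistic fit.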

FGFR2 N549H = biological target: T2, FGFR2 N549H (Homo sapiens, UniProt P21802, N549H); experiment: FGFR mutant enzyme assay (HTRF KinEASE-TK); assay type: biochemical; conditions: ATP 0.9 uM
T2 construct: biochemical assays using purified intracellular domains of the respective isoforms; purchased Carna Bioscience 08-532
Method in brief: as §1

FGFR2 V564F = biological target: T3, FGFR2 V564F (Homo sapiens, UniProt P21802, V564F); experiment: FGFR mutant enzyme assay (HTRF KinEASE-TK); assay type: biochemical; conditions: ATP 1.5 uM
T3 construct: biochemical assays using purified intracellular domains of the respective isoforms; purchased SignalChem Biotech F05-12FG
Method in brief: as §1

FGFR2 V564I = biological target: T4, FGFR2 V564I (Homo sapiens, UniProt P21802, V564I); experiment: FGFR mutant enzyme assay (HTRF KinEASE-TK); assay type: biochemical; conditions: ATP 0.4 uM
T4 construct: biochemical assays using purified intracellular domains of the respective isoforms; purchased Carna Bioscience 08-546
Method in brief: as §1

FGFR2-WT = FGFR2-WT (Homo sapiens, UniProt P21802); experiment: Phosphorylated FGFR2-WT (pFGFR2-WT) cell assay, KATOIII cells; assay type: cell-based; conditions: 1 hour incubation, phospho FGFR2 HTRF
Method in brief: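 KATOIII cells treated 1 h at 37 °C with threefold compound dilutions (10 μM to 0.5 nM). Lysate phospho-FGFR2 (Tyr653/654) read by HTRF.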

[1] = compound table after the examples, read-out: Enz FGFR2

T2 sequence (P21802 399-821 N549H limits assumed): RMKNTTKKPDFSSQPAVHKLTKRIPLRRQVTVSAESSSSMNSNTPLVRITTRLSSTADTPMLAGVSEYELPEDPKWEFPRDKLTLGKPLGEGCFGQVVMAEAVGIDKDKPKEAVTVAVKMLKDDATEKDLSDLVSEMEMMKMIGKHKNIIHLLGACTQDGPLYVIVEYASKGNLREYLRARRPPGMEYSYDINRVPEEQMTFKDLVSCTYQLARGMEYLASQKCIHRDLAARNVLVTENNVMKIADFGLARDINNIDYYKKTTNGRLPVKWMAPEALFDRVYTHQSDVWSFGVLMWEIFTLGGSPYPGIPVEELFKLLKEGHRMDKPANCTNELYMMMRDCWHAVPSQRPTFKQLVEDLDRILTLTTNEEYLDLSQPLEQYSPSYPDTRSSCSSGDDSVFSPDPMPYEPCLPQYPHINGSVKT
T3 sequence (P21802 399-821 V564F limits assumed): as the sequence (P21802 399-821 N549H limits assumed) above, with H151N, V166F counted along it
T4 sequence (P21802 399-821 V564I limits assumed): as the sequence (P21802 399-821 N549H limits assumed) above, with H151N, V166I counted along it
Sequence of FGFR2-WT (P21802 430-767 limits assumed): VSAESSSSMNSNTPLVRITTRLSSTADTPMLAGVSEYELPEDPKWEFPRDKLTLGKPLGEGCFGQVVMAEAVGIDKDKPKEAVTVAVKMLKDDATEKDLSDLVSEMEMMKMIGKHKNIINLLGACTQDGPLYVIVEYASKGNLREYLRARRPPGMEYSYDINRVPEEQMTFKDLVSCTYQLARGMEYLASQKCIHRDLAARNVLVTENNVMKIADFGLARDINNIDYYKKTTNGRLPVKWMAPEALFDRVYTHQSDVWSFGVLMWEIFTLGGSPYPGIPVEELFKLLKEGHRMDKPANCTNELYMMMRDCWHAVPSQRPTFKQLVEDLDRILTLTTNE
T1 sequence (P21802 399-821 limits assumed): as the sequence (P21802 399-821 N549H limits assumed) above, with H151N counted along it

IC50 (FGFR2; Table 3, read-out: FGFR2 Enz) | IC50 (FGFR2; [1]) | IC50 (FGFR2 N549H) | IC50 (FGFR2 V564F) | IC50 (FGFR2 V564I) | IC50 (FGFR2-WT) | SMILES
1 nM | 1 nM | 1 nM | 3 nM | 4 nM | 8 nM | Cc1c(-c2cc(O[C@H](C)c3ccc(F)cn3)c3c(C#N)cnn3c2)cnn1[C@@H]1CCC[C@@H](O)C1 [Compound 68, 4-((R)-1-(5-fluoropyridin-2-yl)ethoxy)-6-(1-((1R,3R)-3-hydroxycyclohexyl)-5-methyl-1H-pyrazol-4-yl)pyrazolo[1,5-a]pyridine-3-carbonitrile]
0.4 nM | 0.4 nM | 1 nM | 1.6 nM | 1.6 nM | 2 nM | Cc1c(-c2cc(O[C@@H](c3ccc(F)cn3)C(F)(F)F)c3c(C#N)cnn3c2)cnn1[C@H]1CC[C@H](O)CC1 [Compound 69, 6-(1-((1r,4S)-4-hydroxycyclohexyl)-5-methyl-1H-pyrazol-4-yl)-4-((S)-2,2,2-trifluoro-1-(5-fluoropyridin-2-yl)ethoxy)pyrazolo[1,5-a]pyridine-3-carbonitrile]
110 nM | 110 nM | 160 nM | 219 nM | 420 nM | 790 nM | Cc1c(-c2cc(O[C@H](c3ccc(F)cn3)C(F)(F)F)c3c(C#N)cnn3c2)cnn1[C@H]1CC[C@H](O)CC1 [Compound 70, 6-(1-((1r,4R)-4-hydroxycyclohexyl)-5-methyl-1H-pyrazol-4-yl)-4-((R)-2,2,2-trifluoro-1-(5-fluoropyridin-2-yl)ethoxy)pyrazolo[1,5-a]pyridine-3-carbonitrile]
1 nM | 1 nM | 1 nM | 2 nM | 3 nM | 4.5 nM | Cc1c(-c2cc(O[C@H](C)c3ccc(F)cn3)c3c(C#N)cnn3c2)cnn1[C@H]1CCC[C@@H](O)C1 [Compound 71, 4-((R)-1-(5-fluoropyridin-2-yl)ethoxy)-6-(1-((1S,3R)-3-hydroxycyclohexyl)-5-methyl-1H-pyrazol-4-yl)pyrazolo[1,5-a]pyridine-3-carbonitrile]
0.4 nM | 0.4 nM | 0.45 nM | 1 nM | 1.5 nM | 3 nM | Cc1c(-c2cc(O[C@H](C)c3ccc(F)cn3)c3c(C#N)cnn3c2)cnn1[C@@H]1CCC[C@H](O)C1 [Compound 72, 4-((R)-1-(5-fluoropyridin-2-yl)ethoxy)-6-(1-((1R,3S)-3-hydroxycyclohexyl)-5-methyl-1H-pyrazol-4-yl)pyrazolo[1,5-a]pyridine-3-carbonitrile]

Source: patent US12351581B2, “Compounds for FGFR inhibition” (Cogent Biosciences, Inc., priority 2023, dated 2025)
